Measurements taken from patent US8871807B2, “Detergents capable of cleaning, bleaching, sanitizing and/or disinfecting textiles including sulfoperoxycarboxylic acids” (Ecolab USA Inc., priority 2008, dated 2014).
Where two headings read alike, the source gives them in different places.

Columns and labels:
Contact angle study = format: physicochemical; settings: concentrate diluted 250 times with DI water (11-SPOUA 85 times)
Description: A study was performed to measure the wetting properties of various sulfonated peracids in aqueous solutions, by measuring the contact angle of the individual solution on different surfaces.
A FTA32 Contact Angle Goniometer with image processing by FTA 32 software was used to measure the contact angle. The contact angle was measured on both stainless steel, and polypropylene surfaces. The peracid concentrates shown in the table below were diluted 250 times with DI water. However, the 11-SPOUA was diluted 85 times with DI water, given the lower levels of peracid precursor in the formula.
The results shown are the average of at least three contact angle measurements.

[1] = Stability of sulfonated peracids in aqueous solution, half time; format: physicochemical
Description: A study was performed to determine the stability of various sulfonated peracids in aqueous solutions. The sulfonated peracids were compared under the same controlled conditions to determine how the structural differences of the selected peracids impacted stability. The sulfonated peracids studied included both mid-chain sulfonated and terminally sulfonated peracids.
Each peracid was tested at a concentration of 50 ppm under ambient conditions. Each individual solution was prepared from the corresponding peracid concentrate by adding it to a 0.05 M pH 5.0 citrate buffer, and adjusting the final solution pH to 5.0 with the addition of a small amount of caustic.
The peracid concentration over time was measured using a kinetic iodometric titration method. For comparison, 50 ppm peroxyacetic acid (POAA), at the same concentration and under the same conditions, was also included in the stability study. Based on the results seen in FIG. 7, the half time of each individual peracid was estimated and the results are summarized in the table below.

[2] = Coupling ability study, 1-octanoic acid by liquid chromatography; format: physicochemical; settings: for 1-Octanoic acid (ppm) coupled: 0.4 grams 1-octanoic acid added to 20 g peracid solution in hydrogen peroxide, filtered lower phase
Description: A study was performed to determine the coupling/hydrotropic properties of various sulfonated peracids in aqueous solutions. The ability of the selected peracids to couple octanoic acid was measured.
Twenty grams (20 g) of each peracid solution was diluted into a beaker containing hydrogen peroxide. […] To each of these solutions, 0.4 grams of 1-octanoic acid was added. The octanoic acid initially floated to the tops of the solutions. The solutions were then stirred for 5-10 minutes with magnetic stir bars at 1,000 rpm. The solutions were then centrifuged for 20 minutes at 3,000-5,000 rpm. The lower phase of each solution was then collected. The lower phases were further clarified by filtration through 0.45 micron syringe filters. All of the filtrates appeared clear and homogenous. The filtered solutions were analyzed by liquid chromatography for 1-octaonic acid.

[3] = pH 4
Description: The issue of low solubility when using long chain peracids has been addressed by increasing the pH to above 7. […] Further, bleaching efficacy decreases proportionally with every pH unit increase over about 7.

[4] = Storage stability, loss of active oxygen by titrimetry; format: physicochemical; settings: 4 weeks
Description: The stability of a sulfoperoxycarboxylic acid of the present invention, i.e., 11-sulfoundecaneperoxoic acid (Compound D), was compared to that of phthalimidoperoxyhexanoic acid (PAP). The stability data for the PAP sample were taken from U.S. Pat. No. 5,994,284, assigned to Clariant GmbH. Samples of the compound of the present invention were stored for four (4) weeks at various temperatures. The loss of active oxygen was measured by titrimetry.

[5] = Powder storage stability at elevated temperature; format: physicochemical; settings: about 140° F.
Description: The compositions of the present invention also show enhanced stability compared to conventional peroxygen containing compositions. In some embodiments, the compositions of the present invention are stable for at least about 1 year at room temperature. In some embodiments, the compositions of the present invention are stable at about 100° F. for at least 30 days. In other embodiments, the compositions of the present invention are stable at about 140° F. for at least 30 days. For example, 11-sulfoundecanoic peroxyacid (Compound D) is stable as a powder system at about 140° F. for at least 30 days.

[6] = 4 weeks, data from U.S. Pat. No. 5,994,284, cited from earlier work
[7] = stated for comparison; cited from earlier work
B. subtilis = assay: Sporicidal efficacy at 14 days, EN 13704; format: cell-based; settings: 30 ppm peroxyoctanoic acid alone; spore species not specified
Description: The test method followed was according to European Standard EN 13704: Quantitative Suspension Test for the Evaluation of Sporicidal Activity of Chemical Disinfectants and Antiseptics Used in Food, Industrial, Domestic and Institutional Areas. Generally, a test suspension of bacterial spores in a solution of interfering substance, simulating clean conditions, was added to a prepared sample of the test formulation diluted in hard water. The mixture was maintained at the specific temperature and time desired. At this contact time, an aliquot is taken; the sporicidal action in this portion was immediately neutralized or suppressed by a validated method. The number of surviving bacterial spores in each sample was determined and the reduction in viable counts was calculated. A test was run to determine the stability and sporicidal efficacy of a composition of the present invention against spores. The composition tested included the sulfonated peroleic acid product, and an amount of peroxyoctanoic acid. The test method used was the European Standard EN 13704: Quantitative Suspension Test for the Evaluation of Sporicidal Activity of Chemical Disinfectants and Antiseptics Used in Food, Industrial, Domestic and Institutional Areas, described above.

Mycobacterium bovis BCG = format: cell-based; settings: 300 ppm POOA, pH 6.5, room temperature

Compound: O=C(CS(=O)(=O)O)OO [Compound 2-SPOAA, 2-Sulfoperoxyacetic acid]
- Contact Angle (degree), Polypropylene (Contact angle study): 75 degree
- Contact Angle (degree), Stainless Steel (Contact angle study): 77 degree
- half-life at 50 ppm ([1]; buffer, pH 5): 37 h
- 1-Octanoic acid (ppm) coupled [2]: 160 ppm

Compound: O=C(CCCCCS(=O)(=O)O)OO [Compound 6-SPOHXA, 6-sulfoperoxyhexanoic acid]
- Contact Angle (degree), Polypropylene (Contact angle study): 84 degree
- Contact Angle (degree), Stainless Steel (Contact angle study): 77 degree
- half-life at 50 ppm ([1]; buffer, pH 5): 88 h
- 1-Octanoic acid (ppm) coupled [2]: 240 ppm

Compound: O=C(CCCCCCCCCCS(=O)(=O)O)OO [Compound D, 11-sulfoundecaneperoxoic acid]
- Contact Angle (degree), Polypropylene (Contact angle study): 77 degree
- Contact Angle (degree), Stainless Steel (Contact angle study): 72 degree
- solubility [3]: about 1.3%
- Loss of Active Oxygen (%) ([4]; 38 ° C.): 7.9%
- Loss of Active Oxygen (%) ([4]; 50 ° C.): 15.7%
- Loss of Active Oxygen (%) ([4]; Room Temp.): 0.78%
- stable as a powder system [5]: at least 30 days
- half-life at 50 ppm ([1]; buffer, pH 5): 91 h
- 1-Octanoic acid (ppm) coupled [2]: 890 ppm
- dissolution of peracid solution in hydrogen peroxide ([2]; 20 g of peracid solution diluted into hydrogen peroxide): dissolved only partially

Compound: O=C(CCCCCN1C(=O)c2ccccc2C1=O)OO [PAP, phthalimidoperoxyhexanoic acid]
- Loss of Active Oxygen (%) ([6]; 25 ° C.): 1.4%
- Loss of Active Oxygen (%) ([6]; 40 ° C.): 2.0%
- Loss of Active Oxygen (%) ([6]; 50 ° C.): 12.0%

Compound: CC(=O)OO [POAA, peroxyacetic acid]
- percarboxylic acid formation constant (Keq) [7]: 2.70
- half-life at 50 ppm ([1]; 50 ppm peracid, 0.05 M citrate buffer pH 5.0, ambient conditions, read-out: t1/2 (converted)): 115 h

Compound: CCCCCCCC(=O)OO [POOA, peroxyoctanoic acid]
- reduction of spores (B. subtilis): did not result in a reduction
- Log Reduction (Mycobacterium bovis BCG; 2.5 min): 3.48
- Log Reduction (Mycobacterium bovis BCG; 5 min): <4.31
